In US20080200404A1, “Novel Antimalarial 9A-Carbamoyl-Aminoalkyl and 9A-Thiocarbamoyl-Aminoalkyl Azalides” (priority 2005, published 2008):
Converted amounts (≈) assume the structure as drawn. Read-outs that look alike come from different tables or passages of the source.

Legend:
Assay type in all cases: cell-based
[1] = tested on: Plasmodium falciparum TM91C235; assay: In vitro antimalarial [3H]-hypoxanthine incorporation assay, TM91C235; conditions: Plasmodium falciparum; P. falciparum TM91C235 (multiple drug resistant isolate), 72 hours exposure
How it was run: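 Growth was read by [3H]-hypoxanthine incorporation after 72 h total incubation, as CPM normalized to the mean of untreated infected controls. Erythrocytic-stage TM91C235 (0.4% parasitemia, 1% hematocrit, ALBUMAX medium without folate or PABA, 5% O2/5% CO2, 37° C) was first exposed 48 h to compound at three levels, 25–25,000 ng/ml, in duplicate.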

[2] = tested on: Plasmodium falciparum clone CDC/Sierra Leone I (D-6); assay: In vitro antimalarial [3H]-hypoxanthine incorporation serial dilution assay, D6; conditions: Plasmodium falciparum, D6, 72 h, P. falciparum D6, 72 hours exposure
How it was run: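 IC50 came from logistic fitting of eleven two-fold compound dilutions, read as [3H]-hypoxanthine uptake into parasite DNA relative to untreated infected wells after 72 h. Parasites were grown in A+ human erythrocytes (6%) in RPMI-1640 with plasma or ALBUMAX at 37° C, 5% CO2, 5% O2.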

[3] = tested on: Plasmodium falciparum clone CDC/Indochina III (W-2); assay: In vitro antimalarial [3H]-hypoxanthine incorporation serial dilution assay, W2; conditions: Plasmodium falciparum; P. falciparum W2, 72 hours exposure
From the text: The in vitro screens for intrinsic antimalarial activity were based on modifications of the procedures described by Desjardins R E, Canfield C J, Haynes J D, Chulay J D. (Quantitative assessment of antimalarial activity in vitro by a semiautomated microdilution technique. Antimicrob Agents Chemother. 1979 December; 16(6):710-8.), Chulay J D, Haynes J D, Diggs C L. (Plasmodium falciparum: Assessment of in vitro growth by [3H]hypoxanthine incorporation. Exp. Parasitol. 1983 55:138-146.), and Milhous W K, Weatherly N F, Bowdre J H, Desjardins R E. (In vitro activities of and mechanisms of resistance to antifol antimalarial drugs. Antimicrob Agents Chemother. 1985 April; 27(4):525-30.). The system was limited to the assessment of the intrinsic activity against the erythrocytic asexual life cycle (blood schizontocides). Two Plasmodium falciparum clones from CDC/Indochina III (W-2) and CDC/Sierra Leone I (D-6) (Oduola A M, Weatherly N F, Bowdre J H, Desjardins R E. Plasmodium falciparum: cloning by single-erythrocyte micromanipulation and heterogeneity in vitro. Exp Parasitol. 1988 66(1):86-95.) were used for all assays. TM91C235, a multiple drug resistant isolate from Thailand, was used for the prescreening assay. W-2 is resistant to chloroquine, quinine, and pyrimethamine and susceptible to mefloquine. D-6 tends to be more resistant to mefloquine and susceptible to chloroquine, quinine, and pyrimethamine. All documents cited in this paragraph are incorporated by reference in their entirety.
All parasites were maintained in continuous long term cultures in RPMI-1640 medium supplemented with 6% washed human A positive (A+)(erythrocytes, 25 mM Hepes, […], and 10% heat inactivated A+human plasma or ALBUMAX® (lipid-rich bovine serum albumin; Invitrogen, Carlsbad, Calif.). All cultures and assays were conducted at 37° C. under an atmosphere of 5% CO2 and 5% O2, with a balance of N2.
After the preincubation, [^3H]-hypoxanthine was added to each well of the MTP. (The assay relies on the incorporation of radiolabeled hypoxanthine by the parasites, which indicates reproduction, and inhibition of isotope incorporation was attributed to activity of known or candidate antimalarial drugs). After 72 hr of total incubation time, the MTP were frozen to lyse the erythrocytes and parasites. The parasite DNA was recovered by harvesting the lysate onto glass-fiber filter plates using a Packard FilterMate™ Cell Harvester. The radioactivity was counted on a Packard TopCount™ microplate scintillation counter. The results were recorded as counts per minutes (CPM) per well at each drug concentration divided by the arithmetic mean of the CPM from the three untreated infection parasite control wells.
The serial dilution assay was conducted using the same assay conditions and stock solution of the compound used for the preliminary screen, described above. Both the D-6 and the W-2 clones were used. The compounds were diluted two-fold over 11 different concentration ranges with a starting concentration that was based on the preliminary screen. For each drug, the concentration response profile was determined and 50% inhibitory concentrations (IC50) were determined by using a non-linear, logistic dose response analysis program. […] For each assay, the IC50 for each clone was determined against the known antimalarials chloroquine and mefloquine. These control values established the compound's relative parasite susceptibility profile compared to known antimalarials. […]
The in vitro potency of the compounds has been compared with that of azithromycin to better gauge compounds suitable for further testing. As described above, parasites were exposed for 72 hours. Data from the in vitro potency tests of azithromycin against the three parasite strains have been averaged, and these numbers have been used for identification of “active” macrolide compounds.

| Structure (SMILES) | IC50 [1] [µg/mL] | IC50 ([2]; read-out: IC50 D6) [µg/mL] | IC50 [3] [µg/mL] | IC50 ([2]; compared with azithromycin, read-out: IC50 D6 (class symbol)) [µg/mL] |
| --- | --- | --- | --- | --- |
| CC[C@H]1OC(=O)[C@H](C)[C@@H](O[C@H]2C[C@@](C)(OC)[C@@H](O)[C@H](C)O2)[C@H](C)[C@@H](O[C@@H]2O[C@H](C)C[C@H](N(C)C)[C@H]2O)[C@](C)(O)C[C@@H](C)CN(CCCNC(=O)NC2CCN(C(=O)OCc3ccccc3)CC2)[C@H](C)[C@@H](O)[C@]1(C)O.O=CO [Example 91] | 0.259 | 0.698 | 0.303 |  |
| C=CCNC(=S)NCCCN1C[C@H](C)C[C@@](C)(O)[C@H](O[C@@H]2O[C@H](C)C[C@H](N(C)C)[C@H]2O)[C@@H](C)[C@H](O[C@H]2C[C@@](C)(OC)[C@@H](O)[C@H](C)O2)[C@@H](C)C(=O)O[C@H](CC)[C@@](C)(O)[C@H](O)[C@H]1C [Example 111] | 0.459 (≈ 0.514 µM) |  | 0.246 (≈ 0.276 µM) | > 0.797 |
| CC[C@H]1OC(=O)[C@H](C)[C@@H](O[C@H]2C[C@@](C)(OC)[C@@H](O)[C@H](C)O2)[C@H](C)[C@@H](O[C@@H]2O[C@H](C)C[C@H](N(C)C)[C@H]2O)[C@](C)(O)C[C@@H](C)CN(CCCNC(=S)Nc2ccc(N(C)C)c3ccccc23)[C@H](C)[C@@H](O)[C@]1(C)O.O=CO [Example 142] | 0.192 | 0.348 | 0.186 |  |
| CC[C@H]1OC(=O)[C@H](C)[C@@H](O[C@H]2C[C@@](C)(OC)[C@@H](O)[C@H](C)O2)[C@H](C)[C@@H](O[C@@H]2O[C@H](C)C[C@H](N(C)C)[C@H]2O)[C@](C)(O)C[C@@H](C)CN(CCCNC(=O)Nc2ccc(C(C)C)cc2)[C@H](C)[C@@H](O)[C@]1(C)O [Example 66] | 0.0746 (≈ 0.0783 µM) | 0.214 (≈ 0.225 µM) | 0.0676 (≈ 0.0709 µM) |  |
| CC[C@H]1OC(=O)[C@H](C)[C@@H](O[C@@H]2C[C@@H](C)[C@H](O)[C@](C)(OC)C2)[C@H](O)[C@@H](O[C@@H]2O[C@H](C)C[C@H](N(C)C)[C@H]2O)[C@](C)(O)C[C@@H](C)CN(CCCNC(=O)Nc2ccc(OCc3ccccc3)cc2)[C@H](C)[C@@H](O)[C@]1(C)O [Example 87] | 0.148 (≈ 0.146 µM) | 0.304 (≈ 0.299 µM) | 0.178 (≈ 0.175 µM) |  |
| CC[C@H]1OC(=O)[C@H](C)[C@@H](O[C@H]2C[C@@](C)(OC)[C@@H](O)[C@H](C)O2)[C@H](C)[C@@H](O[C@@H]2O[C@H](C)C[C@H](N(C)C)[C@H]2O)[C@](C)(O)C[C@@H](C)CN(CCCNC(=S)Nc2ccc(F)c(F)c2F)[C@H](C)[C@@H](O)[C@]1(C)O [Example 133] | 0.0723 (≈ 0.0737 µM) | 0.441 (≈ 0.449 µM) | 0.162 (≈ 0.165 µM) |  |
| CC[C@H]1OC(=O)[C@H](C)[C@@H](O[C@H]2C[C@@](C)(OC)[C@@H](O)[C@H](C)O2)[C@H](C)[C@@H](O[C@@H]2O[C@H](C)C[C@H](N(C)C)[C@H]2O)[C@](C)(O)C[C@@H](C)CN(CCCNC(=O)Nc2cc(F)cc3c2OCOC3)[C@H](C)[C@@H](O)[C@]1(C)O.O=CO [Example 82] | 0.227 | 0.293 | 0.316 |  |
| CC[C@H]1OC(=O)[C@H](C)[C@@H](O[C@H]2C[C@@](C)(OC)[C@@H](O)[C@H](C)O2)[C@H](C)[C@@H](O[C@@H]2O[C@H](C)C[C@H](N(C)C)[C@H]2O)[C@](C)(O)C[C@@H](C)CN(CCCNC(=S)NC2CC3C=CC2C3)[C@H](C)[C@@H](O)[C@]1(C)O.O=CO (stereo partly drawn) [Example 151] | 0.181 | 0.299 | 0.171 |  |
| CC[C@H]1OC(=O)[C@H](C)[C@@H](O[C@H]2C[C@@](C)(OC)[C@@H](O)[C@H](C)O2)[C@H](C)[C@@H](O[C@@H]2O[C@H](C)C[C@H](N(C)C)[C@H]2O)[C@](C)(O)C[C@@H](C)CN(CCCNC(=S)NCCCSC)[C@H](C)[C@@H](O)[C@]1(C)O [Example 109] | 0.332 (≈ 0.354 µM) | 0.843 (≈ 0.898 µM) | 0.19 (≈ 0.202 µM) |  |
| CC[C@H]1OC(=O)[C@H](C)[C@@H](O[C@H]2C[C@@](C)(OC)[C@@H](O)[C@H](C)O2)[C@H](C)[C@@H](O[C@@H]2O[C@H](C)C[C@H](N(C)C)[C@H]2O)[C@](C)(O)C[C@@H](C)CN(CCCNC(=S)Nc2ccc(Br)cc2)[C@H](C)[C@@H](O)[C@]1(C)O.O=CO [Example 137] | 0.182 | 0.274 | 0.178 |  |
| CC[C@H]1OC(=O)[C@H](C)[C@@H](O[C@H]2C[C@@](C)(OC)[C@@H](O)[C@H](C)O2)[C@H](C)[C@@H](O[C@@H]2O[C@H](C)C[C@H](N(C)C)[C@H]2O)[C@](C)(O)C[C@@H](C)CN(CCCNC(=S)Nc2ccc(S(=O)(=O)N3CCCCC3)cc2)[C@H](C)[C@@H](O)[C@]1(C)O [Example 141] | 0.0731 (≈ 0.068 µM) | 0.188 (≈ 0.175 µM) | 0.057 (≈ 0.0531 µM) |  |
| CC[C@H]1OC(=O)[C@H](C)[C@@H](O[C@H]2C[C@@](C)(OC)[C@@H](O)[C@H](C)O2)[C@H](C)[C@@H](O[C@@H]2O[C@H](C)C[C@H](N(C)C)[C@H]2O)[C@](C)(O)C[C@@H](C)CN(CCCNC(=S)Nc2cccc3nsnc23)[C@H](C)[C@@H](O)[C@]1(C)O.O=CO [Example 150] | 0.105 | 0.181 | 0.091 |  |
| CC[C@H]1OC(=O)[C@H](C)[C@@H](O[C@H]2C[C@@](C)(OC)[C@@H](O)[C@H](C)O2)[C@H](C)[C@@H](O[C@@H]2O[C@H](C)C[C@H](N(C)C)[C@H]2O)[C@](C)(O)C[C@@H](C)CN(CCCNC(=O)Nc2ccc(C(F)(F)F)cc2)[C@H](C)[C@@H](O)[C@]1(C)O.O=CO [Example 70] | 0.0863 | 0.164 | 0.0765 |  |
| CC[C@H]1OC(=O)[C@H](C)[C@@H](O[C@H]2C[C@@](C)(OC)[C@@H](O)[C@H](C)O2)[C@H](C)[C@@H](O[C@@H]2O[C@H](C)C[C@H](N(C)C)[C@H]2O)[C@](C)(O)C[C@@H](C)CN(CCCNC(=S)NCc2ccco2)[C@H](C)[C@@H](O)[C@]1(C)O.O=CO [Example 143] | 0.234 | 0.322 | 0.439 |  |
| CC[C@H]1OC(=O)[C@H](C)[C@@H](O[C@H]2C[C@@](C)(OC)[C@@H](O)[C@H](C)O2)[C@H](C)[C@@H](O[C@@H]2O[C@H](C)C[C@H](N(C)C)[C@H]2O)[C@](C)(O)C[C@@H](C)CN(CCCNC(=S)Nc2cc(-c3ccccc3)ccc2OC)[C@H](C)[C@@H](O)[C@]1(C)O [Example 127] | 0.0571 (≈ 0.0553 µM) | 0.06 (≈ 0.0581 µM) | 0.117 (≈ 0.114 µM) |  |
| CC[C@H]1OC(=O)[C@H](C)[C@@H](O[C@H]2C[C@@](C)(OC)[C@@H](O)[C@H](C)O2)[C@H](C)[C@@H](O[C@@H]2O[C@H](C)C[C@H](N(C)C)[C@H]2O)[C@](C)(O)C[C@@H](C)CN(CCCNC(=S)Nc2ccc(OC)cc2)[C@H](C)[C@@H](O)[C@]1(C)O [Example 102] | 0.201 (≈ 0.209 µM) | 0.46 (≈ 0.48 µM) | 0.0737 (≈ 0.077 µM) |  |
| CC[C@H]1OC(=O)[C@H](C)[C@@H](O[C@H]2C[C@@](C)(OC)[C@@H](O)[C@H](C)O2)[C@H](C)[C@@H](O[C@@H]2O[C@H](C)C[C@H](N(C)C)[C@H]2O)[C@](C)(O)C[C@@H](C)CN(CCCNC(=S)Nc2ccc(Oc3ccccc3)nc2)[C@H](C)[C@@H](O)[C@]1(C)O.O=CO [Example 146] | 0.142 | 0.23 | 0.117 |  |
